In PubChem BioAssay (NCI):
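These data come from cells grown in 96-well plates and exposed to compound for 48 hours at five concentrations. TGI: concentration producing complete growth inhibition.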

What was measured:
Experiment in all cases: DTP human tumour cell line panel, 48 h
COLO 205 colon = system: COLO 205 colon
HOP-92 NSCLC = system: HOP-92 NSCLC
HS 578T breast = system: HS 578T breast
SNB-75 CNS = system: SNB-75 CNS
BT-549 breast = system: BT-549 breast
PC-3 prostate = system: PC-3 prostate
SW-620 colon = system: SW-620 colon
TK-10 renal = system: TK-10 renal
KM12 colon = system: KM12 colon
CCRF-CEM leukemia = system: CCRF-CEM leukemia
NCI-H23 lung = system: NCI-H23 lung
UACC-62 melanoma = system: UACC-62 melanoma
OVCAR-5 ovarian = system: OVCAR-5 ovarian
SF-268 CNS = system: SF-268 CNS
OVCAR-8 ovarian = system: OVCAR-8 ovarian
MDA-MB-231 breast = system: MDA-MB-231 breast
DU-145 prostate = system: DU-145 prostate
HCT-116 colon = system: HCT-116 colon
SK-OV-3 ovarian = system: SK-OV-3 ovarian
HCC-2998 colon = system: HCC-2998 colon
IGROV1 ovarian = system: IGROV1 ovarian
SK-MEL-2 melanoma = system: SK-MEL-2 melanoma
SF-295 CNS = system: SF-295 CNS
M14 melanoma = system: M14 melanoma
NCI-H522 lung = system: NCI-H522 lung
UO-31 renal = system: UO-31 renal
SN12C renal = system: SN12C renal
MOLT-4 leukemia = system: MOLT-4 leukemia
SNB-19 CNS = system: SNB-19 CNS
RPMI-8226 leukemia = system: RPMI-8226 leukemia
MCF7 breast = system: MCF7 breast
RXF 393 renal = system: RXF 393 renal
A549 NSCLC = system: A549 NSCLC
UACC-257 melanoma = system: UACC-257 melanoma
NCI-H226 lung = system: NCI-H226 lung
U251 CNS = system: U251 CNS
A498 renal = system: A498 renal
NCI/ADR-RES ovarian = system: NCI/ADR-RES ovarian
HL-60(TB) leukemia = system: HL-60(TB) leukemia
786-0 renal = system: 786-0 renal
SK-MEL-5 melanoma = system: SK-MEL-5 melanoma
MALME-3M melanoma = system: MALME-3M melanoma
HCT-15 colon = system: HCT-15 colon
NCI-H460 lung = system: NCI-H460 lung
T-47D breast = system: T-47D breast
HOP-62 NSCLC = system: HOP-62 NSCLC
SK-MEL-28 melanoma = system: SK-MEL-28 melanoma
HT29 colon = system: HT29 colon
OVCAR-3 ovarian = system: OVCAR-3 ovarian
CAKI-1 renal = system: CAKI-1 renal
MDA-N = system: MDA-N
SF-539 CNS = system: SF-539 CNS
ACHN renal = system: ACHN renal
MDA-MB-435 = system: MDA-MB-435
OVCAR-4 ovarian = system: OVCAR-4 ovarian
EKVX NSCLC = system: EKVX NSCLC
SR leukemia = system: SR leukemia
K-562 leukemia = system: K-562 leukemia
LOX IMVI melanoma = system: LOX IMVI melanoma

COc1cc2c(cc1OC)C1C(O)C(OC)C=C3CC[N+](C)(C2)C31 (configuration not stated)
TGI (COLO 205 colon): > 100 µM | TGI (HOP-92 NSCLC): > 100 µM | TGI (HS 578T breast): > 100 µM | TGI (SNB-75 CNS): > 100 µM | TGI (BT-549 breast): > 100 µM | TGI (PC-3 prostate): > 100 µM | TGI (SW-620 colon): > 100 µM | TGI (TK-10 renal): > 100 µM | TGI (KM12 colon): > 100 µM | TGI (CCRF-CEM leukemia): > 100 µM | TGI (NCI-H23 lung): > 100 µM | TGI (UACC-62 melanoma): > 100 µM | TGI (OVCAR-5 ovarian): > 100 µM | TGI (SF-268 CNS): > 100 µM | TGI (OVCAR-8 ovarian): > 100 µM | TGI (MDA-MB-231 breast): > 100 µM | TGI (DU-145 prostate): > 100 µM | TGI (HCT-116 colon): > 100 µM | TGI (SK-OV-3 ovarian): > 100 µM | TGI (HCC-2998 colon): > 100 µM | TGI (IGROV1 ovarian): > 100 µM | TGI (SK-MEL-2 melanoma): > 100 µM | TGI (SF-295 CNS): > 100 µM | TGI (M14 melanoma): > 100 µM | TGI (NCI-H522 lung): > 100 µM | TGI (UO-31 renal): > 100 µM | TGI (SN12C renal): > 100 µM | TGI (MOLT-4 leukemia): > 100 µM | TGI (SNB-19 CNS): > 100 µM | TGI (RPMI-8226 leukemia): > 100 µM | TGI (MCF7 breast): > 100 µM | TGI (RXF 393 renal): > 100 µM | TGI (A549 NSCLC): > 100 µM | TGI (UACC-257 melanoma): > 100 µM | TGI (NCI-H226 lung): > 100 µM | TGI (U251 CNS): > 100 µM | TGI (A498 renal): > 100 µM | TGI (NCI/ADR-RES ovarian): > 100 µM | TGI (HL-60(TB) leukemia): > 100 µM | TGI (786-0 renal): > 100 µM | TGI (SK-MEL-5 melanoma): > 100 µM | TGI (MALME-3M melanoma): > 100 µM | TGI (HCT-15 colon): > 100 µM | TGI (NCI-H460 lung): > 100 µM | TGI (T-47D breast): > 100 µM | TGI (HOP-62 NSCLC): > 100 µM | TGI (SK-MEL-28 melanoma): > 100 µM | TGI (HT29 colon): > 100 µM | TGI (OVCAR-3 ovarian): > 100 µM | TGI (CAKI-1 renal): > 100 µM | TGI (MDA-N): > 100 µM | TGI (SF-539 CNS): > 100 µM | TGI (ACHN renal): > 100 µM | TGI (MDA-MB-435): > 100 µM | TGI (OVCAR-4 ovarian): > 100 µM | TGI (EKVX NSCLC): > 100 µM

CC1=CCC[C@@](C)(O)[C@@H]2C[C@H]3C(CSc4ccccc4)C(=O)O[C@H]3[C@@H](O2)[C@H](C)CCC1 (some centres not stated)
TGI (COLO 205 colon): 40.4 µM | TGI (HOP-92 NSCLC): > 100 µM | TGI (HS 578T breast): 56.4 µM | TGI (SNB-75 CNS): 31.1 µM | TGI (SR leukemia): > 100 µM | TGI (BT-549 breast): 46.2 µM | TGI (PC-3 prostate): 22.2 µM | TGI (SW-620 colon): 93.2 µM | TGI (TK-10 renal): 33.5 µM | TGI (KM12 colon): 22.6 µM | TGI (CCRF-CEM leukemia): > 100 µM | TGI (NCI-H23 lung): 33.8 µM | TGI (UACC-62 melanoma): 34.1 µM | TGI (OVCAR-5 ovarian): 30.7 µM | TGI (SF-268 CNS): > 100 µM | TGI (OVCAR-8 ovarian): 32.4 µM | TGI (MDA-MB-231 breast): > 100 µM | TGI (DU-145 prostate): 76.6 µM | TGI (HCT-116 colon): > 100 µM | TGI (SK-OV-3 ovarian): 37.9 µM | TGI (HCC-2998 colon): 30.3 µM | TGI (IGROV1 ovarian): 85.1 µM | TGI (SK-MEL-2 melanoma): 32.3 µM | TGI (K-562 leukemia): > 100 µM | TGI (SF-295 CNS): 25.3 µM | TGI (M14 melanoma): 26.9 µM | TGI (NCI-H522 lung): 35.9 µM | TGI (UO-31 renal): 24.1 µM | TGI (SN12C renal): > 100 µM | TGI (MOLT-4 leukemia): > 100 µM | TGI (SNB-19 CNS): 26.7 µM | TGI (RPMI-8226 leukemia): 84 µM | TGI (MCF7 breast): 29.4 µM | TGI (RXF 393 renal): 30.4 µM | TGI (A549 NSCLC): 27.1 µM | TGI (UACC-257 melanoma): 39.3 µM | TGI (U251 CNS): 66.8 µM | TGI (A498 renal): 45 µM | TGI (HL-60(TB) leukemia): > 100 µM | TGI (LOX IMVI melanoma): 81.6 µM | TGI (786-0 renal): 67.5 µM | TGI (SK-MEL-5 melanoma): 38.3 µM | TGI (MALME-3M melanoma): 32.1 µM | TGI (HCT-15 colon): 67.9 µM | TGI (NCI-H460 lung): 20.4 µM | TGI (T-47D breast): 93.7 µM | TGI (HOP-62 NSCLC): 34.5 µM | TGI (SK-MEL-28 melanoma): 52.9 µM | TGI (OVCAR-3 ovarian): 26.5 µM | TGI (CAKI-1 renal): 64.6 µM | TGI (MDA-N): 86.2 µM | TGI (SF-539 CNS): 30.9 µM | TGI (ACHN renal): 25.5 µM | TGI (MDA-MB-435): 72 µM | TGI (OVCAR-4 ovarian): 45 µM | TGI (EKVX NSCLC): 63.2 µM
